Experimental data taken from article PMC7177633, “Effective Cellular Transport of Ortho-Halogenated Sulfonamide Derivatives of Metformin Is Related to Improved Antiproliferative Activity and Apoptosis Induction in MCF-7 Cells” (International Journal of Molecular Sciences, 2020).
Like-named read-outs stand apart in the source and are kept apart here.

How the values were obtained:
[1] = test system: MCF-7 cells; experiment: Cellular uptake of metformin sulfonamides in MCF-7 cells (HPLC); assay type: in vitro ADME, human; conditions: for uptake into MCF-7 cells / uptake in MCF-7 cells relative to metformin: 800 μmol/L; for uptake into MCF-7 cells: 10 min incubation, 37 °C; for uptake in MCF-7 cells relative to metformin: fold higher than parent drug metformin
In short: (§1)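 MCF-7 or MDA-MB-231 cells exposed to 10−3000 μmol/L compound in HBSS at 37 °C for 10 min, washed with ice-cold HBSS, then lysed in 0.1 M NaOH. Intracellular compound quantified by reversed-phase HPLC-UV at 235 nm against standards spiked on cell layers. Protein by Bradford; quadruplicates.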

[2] = test system: MDA-MB-231 cells; experiment: Cellular uptake of metformin sulfonamides in MDA-MB-231 cells (HPLC); assay type: in vitro ADME, human; conditions: for transport efficacy (Vmax/Km) in MCF-7 relative to MDA-MB-231: fold lower in MDA-MB-231 than in MCF-7
In short: as §1

[3] = test system: MDA-MB-231 cells; experiment: Uptake in the presence of OCT and MATE inhibitors, MDA-MB-231 cells; assay type: in vitro ADME, human; conditions: for interactions with OCT, PMAT and MATE1 transporters, MDA-MB-231: summary from uptake with inhibitors
In short: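 Cells incubated 10 min at 37 °C in HBSS with metformin sulfonamide derivatives at 400 and 800 μmol/L plus disopyramide, cimetidine, lopinavir or methenamine as OCT/MATE/PMAT inhibitors. Intracellular compound concentration then determined by the previously described protocol.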

[4] = test system: MCF-7 cells; experiment: Cell viability WST-1 assay, MCF-7; assay type: cell-based; conditions: Homo sapiens, MCF7; WST-1, 24 h, mean ± SD (n = 6–8); read-out: IC50 inhibition of MCF-7 cells' viability
In short: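 Cells seeded 1 × 10^4/well, grown 24 h, then treated with compounds for 24 h at 37 °C. WST-1 reagent added for 1.5 h, absorbance at 450 nm, normalised to medium-only control (n = 8). IC50 from nonlinear log(concentration)-response fit.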

[5] = Eadie-Hofstee analysis, transporter I
[6] = Eadie-Hofstee analysis, transporter I, read-out: Km, transporter I, MCF-7
[7] = Eadie-Hofstee analysis, transporter II
[8] = Eadie-Hofstee analysis, transporter II, read-out: Km, transporter II, MCF-7
[9] = Michaelis-Menten curve, read-out: Km MCF-7 (Michaelis Menten curves)
[10] = Eadie-Hofstee analysis, transporter I, read-out: Km, transporter I, MDA-MB-231
[11] = Eadie-Hofstee analysis, transporter II, read-out: Km, transporter II, MDA-MB-231
[12] = compound and inhibitor 400 and 800 µmol/L, 10 min, 37 °C

With `CN(C)C(=N)N=C(N)NS(=O)(=O)c1ccccc1Br` [Compound 4] the “Vmax, transporter I, MCF-7” value [1, 5] was 0.031 ± 0.002 nmol/min/mg, the Km [1, 6] was 1.54 ± 0.22 mM and the “Vmax, transporter II, MCF-7” value [1, 7] was 0.153 ± 0.022 nmol/min/mg. The Km [1, 8] was 8.37 ± 1.43 mM, the “Vmax MCF-7 (Michaelis Menten curves)” value ([1]; Michaelis-Menten curve) was 0.049 ± 0.02 nmol/min/mg and the Km [1, 9] was 2.47 ± 0.652 mM. The “uptake into MDA-MB-231 cells” value ([2]; 800 μmol/L, 10 min incubation, 37 °C) was 1.3 ± 0.21 nmol/min/mg protein, the “Vmax, transporter I, MDA-MB-231” value [2, 5] was 10.27 ± 1.18 nmol/min/mg and the Km [2, 10] was 5.52 ± 0.748 mM. For the same molecule, the “Vmax, transporter II, MDA-MB-231” value [2, 7] was 21.44 ± 4.03 nmol/min/mg, the Km [2, 11] was 11.6 ± 2.44 mM and the “uptake in MDA-MB-231 relative to MCF-7” value ([2]; fold more efficient in MDA-MB-231 than in MCF-7) was “approximately 130 fold”. The “uptake in the presence of cimetidine, MDA-MB-231” value [3, 12] was “significantly decreased”, the “uptake in the presence of disopyramide, MDA-MB-231” value [3, 12] was “significantly decreased” and the “uptake in the presence of lopinavir, MDA-MB-231” value [3, 12] was “increased”. The “interactions with OCT, PMAT and MATE1 transporters, MDA-MB-231” value (shortened to “interactions with OCT”) [3] was “OCT1, OCT3, PMAT” and the IC50 [4] was 430 ± 119 µM.
`CN(C)C(=N)N=C(N)NS(=O)(=O)c1ccccc1F` [Compound 7] was tested, and the “uptake into MCF-7 cells” value [1] was 1.592 ± 0.943 nmol/min/mg protein, the “Vmax, transporter I, MCF-7” value [1, 5] was 5.303 ± 1.334 nmol/min/mg and the Km [1, 6] was 2.13 ± 0.815 mM. The “Vmax, transporter II, MCF-7” value [1, 7] was 22.43 ± 12.78 nmol/min/mg, the Km [1, 8] was 6.14 ± 4.6 mM and the “Vmax MCF-7 (Michaelis Menten curves)” value ([1]; Michaelis-Menten curve) was 23.92 ± 7.20 nmol/min/mg. The Km [1, 9] was 10.8 ± 5.13 mM, the “uptake in MCF-7 cells relative to metformin” value [1] was “approximately 14 fold” and the “Vmax, transporter I, MDA-MB-231” value [2, 5] was 0.262 ± 0.035 nmol/min/mg. The Km [2, 10] was 1.53 ± 0.298 mM, the “Vmax, transporter II, MDA-MB-231” value [2, 7] was 0.443 ± 0.026 nmol/min/mg and the Km [2, 11] was 2.25 ± 0.19 mM. For the same molecule, the “transport efficacy (Vmax/Km) in MCF-7 relative to MDA-MB-231” value [2] was 10 fold, the “interactions with OCT” value [3] was “OCT1, OCT3” and the IC50 [4] was 55.1 ± 2.74 µM.
In the case of `CN(C)C(=N)N=C(N)NS(=O)(=O)c1ccccc1Cl` [Compound 1], the “uptake into MCF-7 cells” value [1] is reported as 1.79 ± 0.79 nmol/min/mg protein, the “Vmax, transporter I, MCF-7” value [1, 5] is reported as 18.53 ± 2.41 nmol/min/mg and the Km [1, 6] is reported as 6.72 ± 0.982 mM. The “Vmax, transporter II, MCF-7” value [1, 7] was 62.84 ± 21.37 nmol/min/mg, the Km [1, 8] was 21.1 ± 7.73 mM and the “uptake in MCF-7 cells relative to metformin” value [1] was “approximately 14 fold”. The “Vmax, transporter I, MDA-MB-231” value [2, 5] was 0.0182 ± 0.0026 nmol/min/mg, the Km [2, 10] was 3.07 ± 0.562 mM and the “Vmax, transporter II, MDA-MB-231” value [2, 7] was 0.0261 ± 0.0040 nmol/min/mg. The Km [2, 11] was 3.3 ± 0.625 mM, the “Vmax MDA-231 cells (Michaelis Menten curves)” value ([2]; Michaelis-Menten curve) was 0.047 ± 0.065 nmol/min/mg and the Km ([2]; Michaelis-Menten curve, read-out: Km MDA-231 cells (Michaelis Menten curves)) was 8.3 ± 3.27 mM. The “transport efficacy (Vmax/Km) in MCF-7 relative to MDA-MB-231” value [2] was “over 370 fold”, the “uptake in the presence of cimetidine, MDA-MB-231” value [3, 12] was “No statistically significant changes” and the “uptake in the presence of disopyramide, MDA-MB-231” value [3, 12] was “significantly higher uptake”. The “uptake in the presence of lopinavir, MDA-MB-231” value [3, 12] was “significantly higher uptake”, the “uptake in the presence of methenamine, MDA-MB-231” value [3, 12] was “No statistically significant changes” and the “interactions with OCT” value [3] was “OCT1, PMAT”. For the same molecule, the IC50 [4] was 12.6 ± 1.2 µM.
